This is an account of results in the OligoGym collection.

For one data set, the target named is DENND5A. Kind of data set: reporter assay of Huesken 2005. To be noted: siRNA. On the technique in general: Reporter assays use an easily measured gene product as a stand-in for the process of interest.
The next data set has as its target MRFAP1. In words: reporter assay of Huesken 2005. To be noted: siRNA.

Oligonucleotides are written 5' to 3', each unit as a sugar letter and its base; * is a phosphorothioate linkage, no mark a phosphodiester; rarer units and linkages stand in square brackets, end groups in braces. Plain capitals give the bases only. d = 2'-deoxy (DNA); r = 2'-OH (RNA)
Also: test concentration or dose not given here.

For the substance “sense rArGrArGrUrGrCrCrUrCrCrArArGrCrUrGrArAdTdT / antisense rUrUrCrArGrCrUrUrGrGrArGrGrCrArCrUrCrUdCdA”, the normalised inhibition (eCFP-eYFP dual reporter) in the data set with DENND5A is 66.9%.

For the substance “sense rCrUrUrUrCrArArUrGrCrCrGrUrCrGrArUrUrAdTdT / antisense rUrArArUrCrGrArCrGrGrCrArUrUrGrArArArGdAdC”, the normalised inhibition (eCFP-eYFP dual reporter) with DENND5A amounted to 76.8%.

Regarding “sense rGrGrCrUrArArCrCrUrCrUrGrCrUrUrUrGrUrGdTdT / antisense rCrArCrArArArGrCrArGrArGrGrUrUrArGrCrCdTdC”, in the data set with DENND5A, the normalised inhibition (eCFP-eYFP dual reporter) is 70.2%.

As to “sense rArGrUrUrGrCrCrArGrArGrGrArCrUrUrGrCrCdTdT / antisense rGrGrCrArArGrUrCrCrUrCrUrGrGrCrArArCrUdCdA”, the normalised inhibition (eCFP-eYFP dual reporter) in the data set with DENND5A was found to be 71.7%.

Consider “sense rCrUrUrGrArGrArGrCrUrArCrArUrArUrArCrAdTdT / antisense rUrGrUrArUrArUrGrUrArGrCrUrCrUrCrArArGdGdG”, for which, in the data set with DENND5A, the normalised inhibition (eCFP-eYFP dual reporter) was determined as 74.2%.

For the substance “sense rArUrUrUrGrArCrUrUrUrCrCrUrGrUrCrArArAdTdT / antisense rUrUrUrGrArCrArGrGrArArArGrUrCrArArArUdAdG”, the normalised inhibition (eCFP-eYFP dual reporter) in the data set with DENND5A is 53.7%.

Take “sense rUrUrArCrCrArGrArGrArCrUrGrArUrGrArCrUdTdT / antisense rArGrUrCrArUrCrArGrUrCrUrCrUrGrGrUrArAdTdG”: the normalised inhibition (eCFP-eYFP dual reporter) in the data set with DENND5A turned out to be 28.8%.

For the substance “sense rArCrCrUrGrGrGrArGrArArGrGrGrUrCrGrGrAdTdT / antisense rUrCrCrGrArCrCrCrUrUrCrUrCrCrCrArGrGrUdCdA”, the normalised inhibition (eCFP-eYFP dual reporter) in the data set with MRFAP1 was determined as 77.6%.

“sense rCrCrCrArGrGrGrCrGrGrArGrArArGrGrCrCrGdTdT / antisense rCrGrGrCrCrUrUrCrUrCrCrGrCrCrCrUrGrGrGdGdC”: the normalised inhibition (eCFP-eYFP dual reporter) with MRFAP1 was 65.6%.

As to “sense rUrCrCrUrGrGrCrUrUrUrGrGrUrGrUrGrUrUrCdTdT / antisense rGrArArCrArCrArCrCrArArArGrCrCrArGrGrAdAdT”, the normalised inhibition (eCFP-eYFP dual reporter) with MRFAP1 came out at 66.9%.

In the case of “sense rCrCrUrGrCrArArUrGrGrArCrCrCrArArArArCdTdT / antisense rGrUrUrUrUrGrGrGrUrCrCrArUrUrGrCrArGrGdTdT”, in the data set with MRFAP1, the normalised inhibition (eCFP-eYFP dual reporter) stood at 86.2%.

As for “sense rGrArArUrArArCrGrUrUrCrArUrUrCrCrUrGrGdTdT / antisense rCrCrArGrGrArArUrGrArArCrGrUrUrArUrUrCdAdC”, in the data set with MRFAP1, the normalised inhibition (eCFP-eYFP dual reporter) was found to be 66.8%.

As to “sense rUrArUrCrCrCrCrArUrArUrArUrUrUrGrArGrGdTdT / antisense rCrCrUrCrArArArUrArUrArUrGrGrGrGrArUrAdCdC”, the normalised inhibition (eCFP-eYFP dual reporter) with MRFAP1 worked out at 48.6%.

For “sense rCrCrCrUrGrUrGrArCrArCrUrGrArGrArCrUrUdTdT / antisense rArArGrUrCrUrCrArGrUrGrUrCrArCrArGrGrGdAdC”, the normalised inhibition (eCFP-eYFP dual reporter) with MRFAP1 was determined as 65.9%.

Consider “sense rGrGrGrUrGrArCrCrUrGrArUrArGrCrUrCrCrCdTdT / antisense rGrGrGrArGrCrUrArUrCrArGrGrUrCrArCrCrCdAdA”, for which the normalised inhibition (eCFP-eYFP dual reporter) with MRFAP1 is 87.1%.

On to “sense rGrArCrGrCrArGrUrGrGrArGrCrUrGrGrCrGrGdTdT / antisense rCrCrGrCrCrArGrCrUrCrCrArCrUrGrCrGrUrCdCdA”, for which the normalised inhibition (eCFP-eYFP dual reporter) with MRFAP1 amounted to 65.5%.

As to “sense rGrArGrArArGrGrArArArArCrCrUrGrCrArArUdTdT / antisense rArUrUrGrCrArGrGrUrUrUrUrCrCrUrUrCrUrCdAdG”, the normalised inhibition (eCFP-eYFP dual reporter) with MRFAP1 was determined as 79.1%.

“sense rCrGrGrArArCrCrCrGrGrUrArUrGrGrGrArGrAdTdT / antisense rUrCrUrCrCrCrArUrArCrCrGrGrGrUrUrCrCrGdTdT”: in the data set with MRFAP1, the normalised inhibition (eCFP-eYFP dual reporter) worked out at 49.8%.

Regarding “sense rArUrCrCrUrUrGrCrArArUrArCrCrCrUrUrUrGdTdT / antisense rCrArArArGrGrGrUrArUrUrGrCrArArGrGrArUdCdT”, the normalised inhibition (eCFP-eYFP dual reporter) with MRFAP1 was determined as 66.3%.

For “sense rCrUrUrCrGrArGrCrArGrUrUrUrCrUrGrCrUrGdTdT / antisense rCrArGrCrArGrArArArCrUrGrCrUrCrGrArArGdTdC”, the normalised inhibition (eCFP-eYFP dual reporter) with MRFAP1 stood at 59.9%.

Take “sense rUrGrCrArGrCrUrCrGrUrGrCrGrGrCrGrGrArUdTdT / antisense rArUrCrCrGrCrCrGrCrArCrGrArGrCrUrGrCrAdCdC”: the normalised inhibition (eCFP-eYFP dual reporter) with MRFAP1 is 33.7%.

For the substance “sense rUrUrCrUrCrArCrUrGrArCrArCrUrArCrGrUrUdTdT / antisense rArArCrGrUrArGrUrGrUrCrArGrUrGrArGrArAdCdA”, the normalised inhibition (eCFP-eYFP dual reporter) in the data set with MRFAP1 was determined as 72.2%.

For “sense rGrGrArUrUrGrUrArUrUrGrUrUrUrCrUrArUrGdTdT / antisense rCrArUrArGrArArArCrArArUrArCrArArUrCrCdTdC”, the normalised inhibition (eCFP-eYFP dual reporter) in the data set with MRFAP1 came to 93.3%.

On to “sense rCrUrArGrGrArCrUrGrArUrGrArCrCrUrGrGrGdTdT / antisense rCrCrCrArGrGrUrCrArUrCrArGrUrCrCrUrArGdCdC”, for which, in the data set with MRFAP1, the normalised inhibition (eCFP-eYFP dual reporter) came to 63.1%.

Take “sense rArGrArGrGrCrCrUrCrUrGrArGrGrArGrArGrCdTdT / antisense rGrCrUrCrUrCrCrUrCrArGrArGrGrCrCrUrCrUdAdC”: in the data set with MRFAP1, the normalised inhibition (eCFP-eYFP dual reporter) was 69.3%.

As to “sense rArArCrUrUrUrGrGrGrUrCrCrCrUrGrUrGrArCdTdT / antisense rGrUrCrArCrArGrGrGrArCrCrCrArArArGrUrUdCdA”, the normalised inhibition (eCFP-eYFP dual reporter) with MRFAP1 came out at 26.8%.

On to “sense rGrGrArGrGrArUrUrGrUrArUrUrGrUrUrUrCrUdTdT / antisense rArGrArArArCrArArUrArCrArArUrCrCrUrCrCdGdA”, for which the normalised inhibition (eCFP-eYFP dual reporter) with MRFAP1 came to 105%.

Take “sense rArArArUrUrUrUrArUrGrUrGrCrUrArCrArCrUdTdT / antisense rArGrUrGrUrArGrCrArCrArUrArArArArUrUrUdAdA”: the normalised inhibition (eCFP-eYFP dual reporter) in the data set with MRFAP1 was 46.8%.

“sense rCrUrArUrCrUrArUrUrArUrArArCrCrUrGrCrCdTdT / antisense rGrGrCrArGrGrUrUrArUrArArUrArGrArUrArGdTdG”: the normalised inhibition (eCFP-eYFP dual reporter) with MRFAP1 is 90.4%.

In the case of “sense rArGrUrGrArUrGrGrCrGrArUrUrGrGrCrUrGrAdTdT / antisense rUrCrArGrCrCrArArUrCrGrCrCrArUrCrArCrUdCdA”, the normalised inhibition (eCFP-eYFP dual reporter) in the data set with MRFAP1 worked out at 85.8%.

Take “sense rUrCrCrArGrArUrCrArArGrArCrGrCrArGrGrUdTdT / antisense rArCrCrUrGrCrGrUrCrUrUrGrArUrCrUrGrGrAdTdC”: in the data set with MRFAP1, the normalised inhibition (eCFP-eYFP dual reporter) was 54.6%.

As to “sense rCrUrGrCrCrCrGrUrCrArUrCrCrArCrGrArGrAdTdT / antisense rUrCrUrCrGrUrGrGrArUrGrArCrGrGrGrCrArGdCdA”, the normalised inhibition (eCFP-eYFP dual reporter) with MRFAP1 worked out at 70.8%.

As to “sense rCrArArArGrGrArGrGrArGrArGrArUrGrUrArUdTdT / antisense rArUrArCrArUrCrUrCrUrCrCrUrCrCrUrUrUrGdGdT”, the normalised inhibition (eCFP-eYFP dual reporter) with MRFAP1 was determined as 99.2%.

“sense rGrUrGrGrGrArGrArUrGrGrArCrArArUrArUrGdTdT / antisense rCrArUrArUrUrGrUrCrCrArUrCrUrCrCrCrArCdAdG”: the normalised inhibition (eCFP-eYFP dual reporter) with MRFAP1 was 79.7%.

As to “sense rGrArArArGrArUrCrCrUrUrGrCrArArUrArCrCdTdT / antisense rGrGrUrArUrUrGrCrArArGrGrArUrCrUrUrUrCdAdT”, in the data set with MRFAP1, the normalised inhibition (eCFP-eYFP dual reporter) was 82.6%.

In the case of “sense rUrCrArUrUrCrCrUrGrGrCrUrUrUrGrGrUrGrUdTdT / antisense rArCrArCrCrArArArGrCrCrArGrGrArArUrGrAdAdC”, in the data set with MRFAP1, the normalised inhibition (eCFP-eYFP dual reporter) amounted to 52.6%.

For the substance “sense rGrGrCrArArGrCrUrGrUrGrGrGrArGrArUrGrGdTdT / antisense rCrCrArUrCrUrCrCrCrArCrArGrCrUrUrGrCrCdCdC”, in the data set with MRFAP1, the normalised inhibition (eCFP-eYFP dual reporter) turned out to be 81%.

“sense rArArCrUrUrUrGrArUrUrUrGrGrArArArArUrGdTdT / antisense rCrArUrUrUrUrCrCrArArArUrCrArArArGrUrUdAdT”: the normalised inhibition (eCFP-eYFP dual reporter) with MRFAP1 was 50.3%.

As for “sense rGrGrArGrUrUrGrGrArGrCrUrCrArCrCrGrCrCdTdT / antisense rGrGrCrGrGrUrGrArGrCrUrCrCrArArCrUrCrCdAdA”, the normalised inhibition (eCFP-eYFP dual reporter) in the data set with MRFAP1 stood at 50%.

“sense rArArGrGrUrUrCrArUrArUrGrUrArGrUrCrArAdTdT / antisense rUrUrGrArCrUrArCrArUrArUrGrArArCrCrUrUdGdA”: the normalised inhibition (eCFP-eYFP dual reporter) in the data set with MRFAP1 is 85.4%.

For the substance “sense rGrUrGrUrGrArGrArCrCrArArArGrGrArGrGrAdTdT / antisense rUrCrCrUrCrCrUrUrUrGrGrUrCrUrCrArCrArCdAdG”, in the data set with MRFAP1, the normalised inhibition (eCFP-eYFP dual reporter) was determined as 98%.

As to “sense rCrUrGrCrUrGrCrCrCrGrUrCrArUrCrCrArCrGdTdT / antisense rCrGrUrGrGrArUrGrArCrGrGrGrCrArGrCrArGdAdA”, the normalised inhibition (eCFP-eYFP dual reporter) with MRFAP1 was 39.5%.

As for “sense rUrUrGrArUrUrUrGrGrArArArArUrGrCrGrCrUdTdT / antisense rArGrCrGrCrArUrUrUrUrCrCrArArArUrCrArAdAdG”, in the data set with MRFAP1, the normalised inhibition (eCFP-eYFP dual reporter) turned out to be 68.1%.

As to “sense rCrUrUrGrCrArArUrArCrCrCrUrUrUrGrUrGrUdTdT / antisense rArCrArCrArArArGrGrGrUrArUrUrGrCrArArGdGdA”, in the data set with MRFAP1, the normalised inhibition (eCFP-eYFP dual reporter) amounted to 74.1%.

Consider “sense rUrUrUrGrArGrGrUrCrArArArArCrCrCrUrUrAdTdT / antisense rUrArArGrGrGrUrUrUrUrGrArCrCrUrCrArArAdTdG”, for which, in the data set with MRFAP1, the normalised inhibition (eCFP-eYFP dual reporter) turned out to be 82.6%.

Take “sense rCrCrArGrArGrArGrCrCrUrUrUrGrUrUrUrUrCdTdT / antisense rGrArArArArCrArArArGrGrCrUrCrUrCrUrGrGdTdT”: the normalised inhibition (eCFP-eYFP dual reporter) in the data set with MRFAP1 was 89.6%.

Take “sense rCrUrCrArArCrCrArCrCrUrGrCrArGrGrGrCrGdTdT / antisense rCrGrCrCrCrUrGrCrArGrGrUrGrGrUrUrGrArGdAdG”: the normalised inhibition (eCFP-eYFP dual reporter) in the data set with MRFAP1 was found to be 43.2%.

As for “sense rArGrCrUrCrGrUrGrCrGrGrCrGrGrArUrArGrAdTdT / antisense rUrCrUrArUrCrCrGrCrCrGrCrArCrGrArGrCrUdGdC”, the normalised inhibition (eCFP-eYFP dual reporter) with MRFAP1 was 79.7%.

For “sense rGrUrArGrUrCrArArGrCrUrArUrArArArUrGrUdTdT / antisense rArCrArUrUrUrArUrArGrCrUrUrGrArCrUrArCdAdT”, the normalised inhibition (eCFP-eYFP dual reporter) in the data set with MRFAP1 was 88.3%.
